Consider 38 compounds from patent US20060063759A1, “Tricyclic steroid hormone nuclear receptor modulators” (priority 2002, published 2006).

One assay deals with T1, human MR (Homo sapiens, UniProt P08235).
T1 construct: The full length human MR gene is cloned from a human kidney or human brain cDNA library; His tag from the pAcHLT vector (own knowledge); made in house; host or cells: Sf9 insect cells (baculovirus, pAcHLT transfer vector)
T1 sequence (P08235 1-984): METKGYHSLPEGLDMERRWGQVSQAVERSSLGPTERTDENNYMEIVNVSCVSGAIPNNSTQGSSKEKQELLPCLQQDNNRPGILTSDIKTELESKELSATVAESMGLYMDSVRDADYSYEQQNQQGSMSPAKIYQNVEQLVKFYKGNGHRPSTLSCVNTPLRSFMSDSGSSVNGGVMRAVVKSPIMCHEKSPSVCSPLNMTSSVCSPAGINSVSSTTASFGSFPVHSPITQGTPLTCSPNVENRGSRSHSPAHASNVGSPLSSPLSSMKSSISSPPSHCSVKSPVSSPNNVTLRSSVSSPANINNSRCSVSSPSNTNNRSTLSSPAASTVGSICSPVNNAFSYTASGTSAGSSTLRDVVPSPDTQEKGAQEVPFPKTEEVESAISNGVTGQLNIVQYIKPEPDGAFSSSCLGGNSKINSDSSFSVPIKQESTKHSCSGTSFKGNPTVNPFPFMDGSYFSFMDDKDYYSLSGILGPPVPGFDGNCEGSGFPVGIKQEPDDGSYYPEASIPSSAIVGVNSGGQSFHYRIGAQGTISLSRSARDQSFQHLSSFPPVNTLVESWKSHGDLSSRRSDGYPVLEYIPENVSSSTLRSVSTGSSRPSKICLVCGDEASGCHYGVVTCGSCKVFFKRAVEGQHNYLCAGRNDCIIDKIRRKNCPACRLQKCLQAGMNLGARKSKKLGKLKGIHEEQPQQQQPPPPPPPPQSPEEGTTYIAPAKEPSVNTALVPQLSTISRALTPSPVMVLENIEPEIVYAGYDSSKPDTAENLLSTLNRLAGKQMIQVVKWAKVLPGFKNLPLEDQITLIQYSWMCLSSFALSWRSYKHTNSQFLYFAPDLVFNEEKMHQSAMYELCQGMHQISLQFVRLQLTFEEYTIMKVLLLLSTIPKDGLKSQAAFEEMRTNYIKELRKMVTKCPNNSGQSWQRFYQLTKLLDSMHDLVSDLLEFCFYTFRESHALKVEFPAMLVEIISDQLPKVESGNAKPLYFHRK
Nature of the assay: Mineralocorticoid Receptor Binding Assay ([3H]-aldosterone). The note with it: [3H]-aldosterone binding, human MR expressed in Sf9 cells; read-out: MR Ki. An outline of the steps:
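Receptor source: freeze-thaw lysate of baculovirus-infected Sf9 cells carrying full-length human MR, 20-25 μg protein. Incubation ~16 h at 4 °C with shaking, pH 7.5 buffer containing 30 mM sodium molybdate and 10% glycerol.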

In the next assay the target is T2, glucocorticoid receptor (Homo sapiens, UniProt P04150).
T2 construct: containing 50-200 ug of A549 cell extract and 1.86 nM [^3H]-dexamethasone; host or cells: A549 human lung epithelial cells (sonicated cell extract)
T2 sequence (P04150 1-777): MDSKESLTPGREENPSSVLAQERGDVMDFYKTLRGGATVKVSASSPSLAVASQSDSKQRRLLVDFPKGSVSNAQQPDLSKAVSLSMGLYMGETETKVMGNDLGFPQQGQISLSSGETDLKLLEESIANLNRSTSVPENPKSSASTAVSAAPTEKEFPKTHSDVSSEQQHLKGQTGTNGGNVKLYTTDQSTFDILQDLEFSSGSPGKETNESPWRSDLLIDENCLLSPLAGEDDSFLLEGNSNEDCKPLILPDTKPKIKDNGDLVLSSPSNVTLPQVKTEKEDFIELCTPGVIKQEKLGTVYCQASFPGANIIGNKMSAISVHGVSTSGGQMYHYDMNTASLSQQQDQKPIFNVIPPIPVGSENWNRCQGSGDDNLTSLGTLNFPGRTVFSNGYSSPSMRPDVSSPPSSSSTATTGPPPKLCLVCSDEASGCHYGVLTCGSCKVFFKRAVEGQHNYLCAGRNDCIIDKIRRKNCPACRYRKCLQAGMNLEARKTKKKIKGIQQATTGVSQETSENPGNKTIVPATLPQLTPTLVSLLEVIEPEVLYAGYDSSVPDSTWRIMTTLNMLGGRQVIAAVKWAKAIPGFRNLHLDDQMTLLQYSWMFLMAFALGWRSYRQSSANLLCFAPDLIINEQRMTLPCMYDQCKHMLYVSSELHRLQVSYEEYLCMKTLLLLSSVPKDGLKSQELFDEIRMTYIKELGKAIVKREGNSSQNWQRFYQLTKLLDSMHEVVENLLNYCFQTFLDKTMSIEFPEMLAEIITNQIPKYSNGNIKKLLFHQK
Nature of the assay: Glucocorticoid Receptor Binding Assay ([3H]-dexamethasone, A549 cell extract). As to conditions: [3H]-dexamethasone binding, read-out: GR Ki. A digest of the protocol: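 Displacement of [3H]-dexamethasone (1.86 nM) from glucocorticoid receptor in sonicated A549 lung epithelial cell extracts, 16 h at 4 °C, pH 7.2 molybdate-containing buffer. Bound radioactivity was scintillation-counted after charcoal/dextran stripping of free ligand.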

Take `CS(=O)(=O)Nc1cccc(/C=C2\c3ccccc3CCc3cc(S(C)(=O)=O)ccc32)c1` [Example 392]: the inhibitory constant (Ki) on human MR and at glucocorticoid receptor was below 500 nM each time.
For `CS(=O)(=O)Nc1cccc(/C=C2/c3ccccc3CCc3cc(S(C)(=O)=O)ccc32)c1` [Example 393], the Ki at human MR and on glucocorticoid receptor was below 500 nM throughout.
`Nc1ccc(C=C2c3ccccc3CCc3cc(Cl)ccc32)cc1` [Example 394]: the inhibitory constant (Ki) on human MR and at glucocorticoid receptor was below 500 nM each time.
On to `CS(=O)(=O)Nc1ccc(C=C2c3ccccc3CCc3cc(Cl)ccc32)cc1` [Example 395], for which the inhibition constant (Ki) was below 500 nM on human MR and below 10000 nM on glucocorticoid receptor.
Consider `COC(=O)Nc1cccc(C=C2c3ccccc3CCc3cc(Cl)ccc32)c1` [Example 396], for which the inhibition constant Ki at human MR and at glucocorticoid receptor was below 500 nM each time.
As to `CN(C)C(=O)Nc1cccc(C=C2c3ccccc3CCc3cc(Cl)ccc32)c1` [Example 397], the inhibition constant Ki on human MR was below 500 nM; on glucocorticoid receptor, below 10000 nM.
Turning to `CN(c1cccc(C=C2c3ccccc3CCc3cc(Cl)ccc32)c1)S(C)(=O)=O` [Example 398], the Ki on human MR and at glucocorticoid receptor was below 500 nM in each case.
Turning to `O=S(=O)(Nc1cccc(C=C2c3ccccc3CCc3cc(Cl)ccc32)c1)c1ccccc1` [Example 399], the inhibition constant (Ki) at human MR is below 500 nM; at glucocorticoid receptor it was below 10000 nM.
On to `O=C(Nc1cccc(C=C2c3ccccc3CCc3cc(Cl)ccc32)c1)C(F)(F)F` [Example 400], for which the Ki on human MR and on glucocorticoid receptor was below 500 nM throughout.
For the compound `CS(=O)(=O)Nc1cccc(C=C2c3ccccc3CCc3cc(N)ccc32)c1` [Example 401], the Ki on human MR and at glucocorticoid receptor was below 500 nM throughout.
As for `CN(C)c1ccc2c(c1)CCc1ccccc1C2=Cc1cccc(NS(C)(=O)=O)c1` [Example 402], the Ki on human MR is below 500 nM; on glucocorticoid receptor it was below 10000 nM.
In the case of `CS(=O)(=O)Nc1cccc(C=C2c3ccccc3CCc3c(N)cccc32)c1` [Example 403], the Ki at human MR and on glucocorticoid receptor was below 500 nM each time.
As for `CN(C)c1cccc2c1CCc1ccccc1C2=Cc1cccc(NS(C)(=O)=O)c1` [Example 404], the Ki at human MR and on glucocorticoid receptor was below 500 nM each time.
In the case of `CC(=O)Nc1ccc2c(c1)CCc1ccccc1C2=Cc1cccc(NS(C)(=O)=O)c1` [Example 405], the Ki at human MR and on glucocorticoid receptor was below 500 nM in each case.
Turning to `CC(=O)Nc1cccc2c1CCc1ccccc1C2=Cc1cccc(NS(C)(=O)=O)c1` [Example 406], the Ki at human MR and on glucocorticoid receptor was below 500 nM throughout.
Consider `CS(=O)(=O)Nc1cccc(/C=C2\c3ccccc3CCc3cc(N)ccc32)c1` [Example 407], for which the Ki on human MR and on glucocorticoid receptor was below 500 nM each time.
Regarding `CS(=O)(=O)Nc1cccc(/C=C2/c3ccccc3CCc3cc(N)ccc32)c1` [Example 408], the Ki at human MR and on glucocorticoid receptor was below 500 nM each time.
As for `CS(=O)(=O)Nc1cccc(/C=C2\c3ccccc3CCc3c(N)cccc32)c1` [Example 409], the inhibition constant Ki on human MR and at glucocorticoid receptor was below 500 nM in each case.
For `CS(=O)(=O)Nc1cccc(/C=C2/c3ccccc3CCc3c(N)cccc32)c1` [Example 410], the inhibition constant Ki on human MR and on glucocorticoid receptor was below 500 nM throughout.
Regarding `CS(=O)(=O)Nc1cccc(C=C2c3ccccc3CCc3c2cccc3-c2ccccc2)c1` [Example 411], the inhibition constant Ki on human MR and at glucocorticoid receptor was below 500 nM throughout.
Turning to `CS(=O)(=O)Nc1cccc(C=C2c3ccccc3CCc3cc(-c4ccccc4)ccc32)c1` [Example 412], the figures for the inhibition constant Ki at human MR and on glucocorticoid receptor were below 500 nM and below 1000 nM, respectively.
Consider `O=C(Nc1cccc(/C=C2\c3ccccc3CCc3cc(Cl)ccc32)c1)C(F)(F)F` [Example 413], for which the Ki on human MR and at glucocorticoid receptor was below 500 nM in each case.
As to `O=C(Nc1cccc(/C=C2/c3ccccc3CCc3cc(Cl)ccc32)c1)C(F)(F)F` [Example 414], the inhibitory constant (Ki) at human MR and at glucocorticoid receptor was below 500 nM in each case.
As to `CS(=O)(=O)Nc1cccc(/C=C2/c3ccccc3CCc3cc(C(N)=O)ccc32)c1` [Example 415], the Ki on human MR and at glucocorticoid receptor was below 500 nM each time.
`CS(=O)(=O)Nc1cccc(/C=C2\c3ccccc3CCc3cc(C(N)=O)ccc32)c1` [Example 416]: the Ki on human MR and at glucocorticoid receptor was below 500 nM throughout.
For the compound `CS(=O)(=O)Nc1cccc(/C=C2\c3ccccc3CCc3cc(C(=O)O)ccc32)c1` [Example 417], the inhibition constant Ki on human MR and at glucocorticoid receptor was below 500 nM each time.
As for `CS(=O)(=O)Nc1cccc(/C=C2/c3ccccc3CCc3cc(C(=O)O)ccc32)c1` [Example 418], the inhibitory constant (Ki) was below 500 nM on human MR and below 1000 nM on glucocorticoid receptor.
In the same order, the values of `COc1ccc2c(c1)CCc1cc(C)ccc1C2=Cc1cccc(NS(C)(=O)=O)c1` [Example 419] are below 500 nM and below 500 nM.
Turning to `Cc1ccc2c(c1)CCc1cc(F)ccc1C2=Cc1cccc(NS(C)(=O)=O)c1` [Example 420], the Ki on human MR and on glucocorticoid receptor was below 500 nM in each case.
With `Cc1ccc2c(c1)CCc1cc(F)ccc1/C2=C\c1cccc(NS(C)(=O)=O)c1` [Example 421], the inhibition constant (Ki) at human MR and at glucocorticoid receptor was below 500 nM in each case.
On to `Cc1ccc2c(c1)CCc1cc(F)ccc1/C2=C/c1cccc(NS(C)(=O)=O)c1` [Example 422], for which the inhibitory constant (Ki) on human MR and at glucocorticoid receptor was below 500 nM in each case.
As for `COc1ccc2c(c1)CCc1cc(C)ccc1/C2=C\c1cccc(NS(C)(=O)=O)c1` [Example 423], the inhibition constant (Ki) at human MR and on glucocorticoid receptor was below 500 nM in each case.
As to `COc1ccc2c(c1)CCc1cc(C)ccc1/C2=C/c1cccc(NS(C)(=O)=O)c1` [Example 424], the inhibition constant (Ki) at human MR and on glucocorticoid receptor was below 500 nM throughout.
Turning to `CS(=O)(=O)Nc1cccc(C=C2c3ccccc3CCc3cc(OCCN4CCOCC4)ccc32)c1` [Example 427], the figures for the Ki on human MR and at glucocorticoid receptor were below 500 nM and below 10000 nM, respectively.
In the case of `O=c1[nH]c2cc(C=C3c4ccc(F)cc4CCc4cc(F)ccc43)ccc2n1CCN1CCOCC1` [Example 436, 5-(2,8-difluoro-10,11-dihydro-dibenzo[a,d]cyclohepten-5-ylidenemethyl)-1-(2-morpholin-4-yl-ethyl)-1,3-dihydro-benzoimidazol-2-one], the figures for the inhibitory constant (Ki) at human MR and on glucocorticoid receptor were below 500 nM and below 1000 nM, respectively.
Regarding `C(=C1c2ccccc2CCc2ccccc21)c1cn[nH]c1` [Example 439], the Ki at human MR and at glucocorticoid receptor was below 500 nM throughout.
For `Nc1nc2ccc(C=C3c4ccccc4CCc4ccccc43)cc2s1` [Example 442], the Ki at human MR and on glucocorticoid receptor was below 500 nM throughout.
In the case of `C(=C1c2ccccc2CCc2ccccc21)c1ccc2nc[nH]c2c1` [Example 443], the inhibition constant (Ki) on human MR is below 500 nM; on glucocorticoid receptor, below 10000 nM.
